# Data from patent US9763442B2, “In situ generation of peroxycarboxylic acids at alkaline pH, and methods of use thereof” (priority 2010, dated 2017).
# Experiments:
# [1] = Coupling of precipitated aqueous POOA by surfactants/hydrotropes; format: physicochemical; settings: 1000 ppm POOA in DI Water
# Description: A variety of surfactants were analyzed for coupling and/or dispersion stabilizing of a peroxycarboxylic acid composition generated according to the methods of the invention. In particular, a peroxyoctanoic acid (POOA) composition in deionized water produced according to the invention was analyzed for coupling and/or dispersion stabilization using the dispersing agents set forth in Table 14A.
# Given the very limited water solubility of POOA in its protonated form, acidification of the alkaline perhydrolysis solutions of the same causes immediate precipitation and rapid phase separation. In this example various surfactants and hydrotropes were evaluated for their ability to couple the POOA. In Table 14A it can be seen that the most efficient agents for coupling an already precipitated solution of POOA were samples I and II.
# [2] = Dispersion stability of acidified POOA solutions with dispersing agents; format: physicochemical; settings: acidified POOA solution, 10,000 ppm H2SO4; oil sheen = fail
# Description: The SLS, LAS and SOA dispersing agents were then further examined for efficacy in stabilizing and/or dispersing in 1% or lower sulfuric acid solutions. […] Solution 13 was made as 1 through 12 with the addition of 50 mL of 5 grain hard water to the aliquot of alkaline reaction solution followed by swirling with the surface aliquot and then additional 50 mL of 5 grain hard water, followed within about 5 seconds by 50 mL of 5 grain 2% sulfuric acid and swirled. Solution 14 was made by direct addition of 1% sulfuric acid (5 grain) without pre-dilution, but after moments of swirling with SLS aliquot. All concentrations are shown in ppm. […] The appearance of an oil sheen was regarded as a pass or fail.
Molecule,Amount of (B) Required for Coupling [1],Amount of (B) Required for Coupling ([1]; listed as LAS),oil sheen at 23 h [2]
"CCCCCCCCCCCCOS(=O)(=O)[O-].[Na+] [I, Sodium Lauryl Sulfate]",0.64 g/200 g aq POOA,,
"CCCCCCCCS(=O)(=O)[O-].[Na+] [VII, Sodium octanesulfonate]",6.60 g/200 g aq POOA,,
"CCCCC(CC)COC(=O)CC(C(=O)OCC(CC)CCCC)S(=O)(=O)[O-].[Na+] (centres unmarked) [X, Sodium dioctyl Sulfosuccinates]",>2.0 g/200 g aq POOA,,
Alkyl Polyglycosides [VI],2.46 g/200 g aq POOA,,
Linear Aryl Sulfonate [II],0.65 g/200 g aq POOA,0.64 g/200 g aq POOA,minimal surface oil
Sodium Lauryl Ether Sulfate [III],>0.94 g/200 g aq POOA,,
